In patent publication US11285156B2, “Substituted piperazines as KRAS G12C inhibitors” (Amgen Inc., priority 2018, dated 2022):
Read-outs that look alike come from different tables or passages of the source.

How the values were obtained:
[1] = tested on: Phosphorylation of ERK1/2 in MIA PaCa-2 cells; assay: Phospho-ERK1/2 MSD assay in MIA PaCa-2 cells; format: cell-based; details: read-out: p-ERK IC50 (2 h, MiaPaCa-2; μM), 2 h compound treatment, MIA PaCa-2 cells, EGF stimulated
How it was run: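 Phospho-ERK1/2 measured by MSD electrochemiluminescence kit in RIPA lysates of MIA PaCa-2 cells. Cells were treated with compound titrations for 2 or 4 h at 37 °C, 5% CO2, followed by a 10 min pulse of 10 ng/mL EGF.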

[2] = target: GDP-bound KRAS protein (aa 1-169), containing both G12C and C118A amino acid substitutions (Homo sapiens (Human), UniProt P01116, C118A/G12C); assay: Coupled nucleotide exchange assay (SOS-mediated nucleotide exchange, AlphaScreen); format: biochemical; details: read-out: Coupled exchange IC50 (5 min; μM); 5 min compound pre-incubation
Description: Coupled Nucleotide Exchange Assay:
Following compound pre-incubation, purified SOS protein (aa 564-1049) and GTP (Roche 10106399001) were added to the assay wells and incubated for an additional 30 min (for 5 min compound pre-incubation) or 1 hour (for 2 hour compound pre-incubation). […] The assay plates were then read on a PerkinElmer EnVision Multilabel Reader, using AlphaScreen® technology, and data were analyzed using a 4-parameter logistic model to calculate IC50 values.

[3] = tested on: Phosphorylation of ERK1/2 in A549 cells; assay: Phospho-ERK1/2 MSD assay in A549 cells; format: cell-based; details: read-out: p-ERK IC50 (2 h, A549; μM), 2 h compound treatment, A549 cells, EGF stimulated
How it was run: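 Dose-response treatment lasted 2 or 4 h in RPMI 1640/10% FBS at 37 °C. EGF-stimulated (10 ng/mL, 10 min) ERK1/2 phosphorylation was then quantified in cell lysates with a Meso Scale Discovery phospho-ERK1/2 assay.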

GDP-bound KRAS protein (aa 1-169), containing both G12C and C118A amino acid substitutions, sequence (P01116 other isoform, or with tags, fused parts or gaps G12C/C118A): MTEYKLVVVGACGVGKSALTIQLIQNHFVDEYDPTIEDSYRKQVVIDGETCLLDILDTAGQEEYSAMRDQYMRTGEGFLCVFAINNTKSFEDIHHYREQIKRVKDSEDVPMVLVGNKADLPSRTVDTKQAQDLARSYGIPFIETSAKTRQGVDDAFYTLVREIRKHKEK

`C=CC(=O)N1C[C@H](C)N(c2nc(=O)n(-c3c(C)ccnc3C(C)C)c3nc(-c4cc(C)ccc4F)c(F)cc23)C[C@H]1C` (atropisomer, axis not shown; (M)) [Example 94-4, (M)-4-[(2S,5R)-2,5-dimethyl-4-prop-2-enoyl-piperazin-1-yl]-6-fluoro-7-(2-fluoro-5-methyl-phenyl)-1-(2-isopropyl-4-methyl-3-pyridyl)pyrido [2,3-d]pyrimidin-2-one] was tested, and the IC50 ([1]; Homo sapiens, MIA PaCa-2, 2 h) was 0.218 µM, the IC50 [2] was 0.222 µM and the IC50 ([3]; Homo sapiens, A549, 2 h) was greater than 7.5 µM.

In the case of `C=CC(=O)N1C[C@H](C)N(c2nc(=O)n(-c3c(C)ccnc3C(C)C)c3nc(-c4cc(Cl)ccc4F)c(F)cc23)C[C@H]1C` (atropisomer, axis not shown; (M)) [Example 94-5, (M)-7-(5-chloro-2-fluoro-phenyl)-4-[(2S,5R)-2,5-dimethyl-4-prop-2-enoyl-piperazin-1-yl]-6-fluoro-1-(2-isopropyl-4-methyl-3-pyridyl)pyrido [2,3-d]pyrimidin-2-one], the IC50 ([1]; Homo sapiens, MIA PaCa-2, 2 h) is reported as 0.265 µM, the IC50 [2] is reported as 0.708 µM and the IC50 ([3]; Homo sapiens, A549, 2 h) is reported as greater than 7.5 µM.

Work on `C=CC(=O)N1C[C@H](C)N(c2nc(=O)n(-c3c(C)ccnc3C(C)C)c3nc(-c4ccccc4C)c(F)cc23)C[C@H]1C` (atropisomer, axis not shown; (M)) [Example 94-8, (M)-4-[(2S,5R)-2,5-Dimethyl-4-prop-2-enoyl-piperazin-1-yl]-6-fluoro-1-(2-isopropyl-4-methyl-3-pyridyl)-7-(o-tolyl)pyrido[2,3-d]pyrimidin-2-one] yielded an IC50 ([1]; Homo sapiens, MIA PaCa-2, 2 h) of 0.131 µM, an IC50 [2] of 0.255 µM and an IC50 ([3]; Homo sapiens, A549, 2 h) greater than 7.5 µM.

Work on `C=CC(=O)N1C[C@H](C)N(c2nc(=O)n(-c3c(C)ccnc3C(C)C)c3nc(-c4c(C)cccc4F)c(F)cc23)C[C@H]1C` (atropisomer, axis not shown; (M)) [Example 94-10, (M)-4-[(2S,5R)-2,5-Dimethyl-4-prop-2-enoyl-piperazin-1-yl]-6-fluoro-7-(2-fluoro-6-methyl-phenyl)-1-(2-isopropyl-4-methyl-3-pyridyl)pyrido [2,3-d]pyrimidin-2-] yielded an IC50 ([1]; Homo sapiens, MIA PaCa-2, 2 h) of 0.079 µM, an IC50 [2] of 0.137 µM and an IC50 ([3]; Homo sapiens, A549, 2 h) greater than 7.5 µM.

`C=CC(=O)N1C[C@H](C)N(c2nc(=O)n(-c3c(C)ccnc3C(C)C)c3nc(-c4c(F)cccc4Cl)c(F)cc23)C[C@H]1C` (atropisomer, axis not shown; (M)) [Example 94-12, (M)-7-(2-Chloro-6-fluoro-phenyl)-4-[(25,5R)-2,5-dimethyl-4-prop-2-enoyl-piperazin-1-yl]-6-fluoro-1-(2-isopropyl-4-methyl-3-pyridyl)pyrido [2,3-d]pyrimidin-2-one] was tested, and the IC50 ([1]; Homo sapiens, MIA PaCa-2, 2 h) was 0.128 µM, the IC50 [2] was 0.184 µM and the IC50 ([3]; Homo sapiens, A549, 2 h) was greater than 7.5 µM.

`C=CC(=O)N1C[C@H](C)N(c2nc(=O)n(-c3c(C)ccnc3C(C)C)c3nc(-c4c(F)cccc4C(N)=O)c(F)cc23)C[C@H]1C` (atropisomer, axis not shown; (M)) [Example 94-19, (M)-2-[4-[(2S,5R)-2,5-Dimethyl-4-prop-2-enoyl-piperazin-1-yl]-6-fluoro-1-(2-isopropyl-4-methyl-3-pyridyl)-2-oxo-pyrido[2,3-d]pyrimidin-7-yl]-3-fluoro-benzamide] was tested, and the IC50 ([1]; Homo sapiens, MIA PaCa-2, 2 h) was 0.518 µM, the IC50 [2] was 0.067 µM and the IC50 ([3]; Homo sapiens, A549, 2 h) was greater than 7.5 µM.

`C=CC(=O)N1C[C@H](C)N(c2nc(=O)n(-c3c(C)ccnc3C(C)C)c3nc(C4CCCCC4)c(Cl)cc23)C[C@H]1C` (atropisomer, axis not shown; (M)) [Example 95-1, (M)-6-Chloro-7-cyclohexyl-4-[(2S,5R)-2,5-dimethyl-4-prop-2-enoyl-piperazin-1-yl]-1-(2-isopropyl-4-methyl-3-pyridyl)pyrido[2,3-d]pyrimidin-2-one] was tested, and the IC50 [1] was 0.318 µM, the IC50 [2] was 0.053 µM and the IC50 [3] was greater than 7.5 µM.

Molecule `C=CC(=O)N1C[C@H](C)N(c2nc(=O)n(-c3c(C)ccnc3C(C)C)c3nc(C4CCC4)c(Cl)cc23)C[C@H]1C` (atropisomer, axis not shown; (M)) [Example 95-5, (M)-6-chloro-7-cyclobutyl-4-[(2S,5R)-2,5-dimethyl-4-prop-2-enoyl-piperazin-1-yl]-1-(2-isopropyl-4-methyl-3-pyridyl)pyrido [2,3-d]pyrimidin-2-one] has an IC50 ([1]; Homo sapiens, MIA PaCa-2, 2 h) of 0.611 µM, an IC50 [2] of 0.304 µM and an IC50 ([3]; Homo sapiens, A549, 2 h) greater than 7.5 µM.

`C=CC(=O)N1C[C@H](C)N(c2nc(=O)n(-c3c(C)ccnc3C(C)C)c3nc(-c4cc(OC(F)(F)F)ccc4F)c(Cl)cc23)C[C@H]1C` (atropisomer, axis not shown; (M)) [Example 124-12, (M)-6-Chloro-4-[(2S,5R)-2,5-dimethyl-4-prop-2-enoyl-piperazin-1-yl]-7-[2-fluoro-5-(trifluoromethoxy)phenyl]-1-(2-isopropyl-4-methyl-3-pyridyl)pyrido[2,3-d]pyrimidin-2-one] was tested, and the IC50 ([1]; Homo sapiens, MIA PaCa-2, 2 h) was 0.231 µM, the IC50 [2] was 0.313 µM and the IC50 ([3]; Homo sapiens, A549, 2 h) was greater than 7.5 µM.

`C=CC(=O)N1C[C@H](C)N(c2nc(=O)n(-c3c(C)ccnc3C(C)C)c3nc(-c4cc(F)c(F)cc4O)c(Cl)cc23)C[C@H]1C` (atropisomer, axis not shown; (M)) [Example 124-13, (M)-6-Chloro-7-(4,5-difluoro-2-hydroxy-phenyl)-4-[(2S,5R)-2,5-dimethyl-4-prop-2-enoyl-piperazin-1-yl]-1-(2-isopropyl-4-methyl-3-pyridyl)pyrido[2,3-d]pyrimidin-2-one] gave an IC50 ([1]; Homo sapiens, MIA PaCa-2, 2 h) of 0.094 µM, an IC50 [2] of 0.068 µM and an IC50 ([3]; Homo sapiens, A549, 2 h) greater than 7.5 µM.

In the case of `C=CC(=O)N1C[C@H](C)N(c2nc(=O)n(-c3c(C)ccnc3C(C)C)c3nc(-c4c(F)cccc4NC(C)=O)c(Cl)cc23)C[C@H]1C` (atropisomer, axis not shown; (M)) [Example 129-1, (M)-N-[2-[6-Chloro-4-[(2S,5R)-2,5-dimethyl-4-prop-2-enoyl-piperazin-1-yl]-1-(2-isopropyl-4-methyl-3-pyridyl)-2-oxo-pyrido[2,3-d]pyrimidin-7-yl]-3-fluoro-phenyl]acetamide], the IC50 [1] is reported as 0.124 µM, the IC50 [2] is reported as 0.054 µM and the IC50 [3] is reported as greater than 7.5 µM.

With `C=CC(=O)N1C[C@H](C)N(c2nc(=O)n(-c3c(C)ccnc3C(C)C)c3nc(-c4c(F)cccc4NC(=O)C(F)(F)F)c(Cl)cc23)C[C@H]1C` (atropisomer, axis not shown; (M)) [Example 129-2, (M)-N-[2-[6-Chloro-4-[(2S,5R)-2,5-dimethyl-4-prop-2-enoyl-piperazin-1-yl]-1-(2-isopropyl-4-methyl-3-pyridyl)-2-oxo-pyrido[2,3-d]pyrimidin-7-yl]-3-fluoro-phenyl]-2,2,2-trifluoro-acetamide] the IC50 ([1]; Homo sapiens, MIA PaCa-2, 2 h) was 0.027 µM, the IC50 [2] was 0.065 µM and the IC50 ([3]; Homo sapiens, A549, 2 h) was greater than 7.5 µM.

Work on `C=CC(=O)N1C[C@H](C)N(c2nc(=O)n(-c3c(C)ccnc3C(C)C)c3nc(-c4c(F)cccc4NC(=O)CC)c(Cl)cc23)C[C@H]1C` (atropisomer, axis not shown; (M)) [Example 129-4, (M)-N-[2-[6-Chloro-4-[(2S,5R)-2,5-dimethyl-4-prop-2-enoyl-piperazin-1-yl]-1-(2-isopropyl-4-methyl-3-pyridyl)-2-oxo-pyrido[2,3-d]pyrimidin-7-yl]-3-fluoro-phenyl]propanamide] yielded an IC50 ([1]; Homo sapiens, MIA PaCa-2, 2 h) of 0.058 µM, an IC50 [2] of 0.053 µM and an IC50 ([3]; Homo sapiens, A549, 2 h) greater than 7.5 µM.

`C=CC(=O)N1C[C@H](C)N(c2nc(=O)n(-c3c(C)ccnc3C(C)C)c3nc(-c4ccccc4NC(=O)C(F)(F)F)c(Cl)cc23)C[C@H]1C` (atropisomer, axis not shown; (M)) [Example 129-5] was tested, and the IC50 ([1]; Homo sapiens, MIA PaCa-2, 2 h) was 0.087 µM, the IC50 [2] was 0.19 µM and the IC50 ([3]; Homo sapiens, A549, 2 h) was greater than 7.5 µM.
